Where two headings read alike, the source gives them in different places.
Tested on: Bacteriophage MS2
Type: cell-based
Settings: for LOG Reduction: plasma coating of precursor on Tyvek substrate, (LOD) = limit of detection

Which “LOG Reduction” value does the source give for `C=CC(=O)NCCC[N+](C)(C)C.[Cl-]` [APTAC, (3-Acrylamidopropyl)trimethylammonium chloride] here?
The value was 2.1 log.

`CCCCCCCCCCCCCCCCCC[N+](C)(C)CCC[Si](OC)(OC)OC.[Cl-]` [SiQAM, Dimethyloctadecyl[3-(trimethoxysilyl)propyl] ammonium chloride] was tested. Which “LOG Reduction” value did it give?
Its value is 1.56 log.

For “Benzalkonium chloride [reference compound]”, which “LOG Reduction” value is on record?
The value was >3.8 (LOD) log.

How did the “Avg. MS2 (log red)” value (Filter media sample, 6 passes) turn out when Citric Acid was run?
The value was 2.15 log red.

What about the “MS2 neutralized (%)” value (Filter media sample, 6 passes) of the same compound?
The value was 99.29%.

What about the “Avg. MS2 (log red)” value (Filter media sample, 10 passes) of the same compound?
The value was 2.72 log red.

And the “MS2 neutralized (%)” value (Filter media sample, 10 passes)?
Its value is 99.81%.

What about the “Avg. MS2 (log red)” value (Filter media sample, 20 passes) of the same compound?
The value was 2.46 log red.

And the “MS2 neutralized (%)” value (Filter media sample, 20 passes)?
Its value is 99.65%.

What about the “Avg. MS2 (log red)” value (Outer wave sample, 6 passes) of the same compound?
Its value is 2.13 log red.

What about the “MS2 neutralized (%)” value (Outer wave sample, 6 passes) of the same compound?
The value was 99.26%.

What about the “Avg. MS2 (log red)” value (Outer wave sample, 10 passes) of the same compound?
The value was 1.96 log red.

And the “MS2 neutralized (%)” value (Outer wave sample, 10 passes)?
The value was 98.90%.

What about the “Avg. MS2 (log red)” value (Outer wave sample, 20 passes) of the same compound?
The value was 2.71 log red.

And the “MS2 neutralized (%)” value (Outer wave sample, 20 passes)?
Its value is 99.81%.

And the “LOG Reduction” value?
Its value is >5.0 (LOD) log.
